Measurements published in patent US12441726B2, “Compounds and uses thereof” (Foghorn Therapeutics Inc., priority 2020, dated 2025).

Columns and labels:
BRG-1 = BRG-1 (Homo sapiens, UniProt P51532); experiment: ATPase catalytic activity assay (ADP-Glo), BRG-1; conditions: for Emax: 1 h, read-out: BRG1 Max % Inhibition, ADP-Glo, 30 nM BRG-1, 400 μM ATP
BRM = BRM (Homo sapiens, UniProt P51531); experiment: ATPase catalytic activity assay (ADP-Glo), BRM; conditions: 30 nM BRM, 400 μM ATP; for IC50: BRM ATPase: IC50 (uM)
Chain of BRM (P51531 whole entry): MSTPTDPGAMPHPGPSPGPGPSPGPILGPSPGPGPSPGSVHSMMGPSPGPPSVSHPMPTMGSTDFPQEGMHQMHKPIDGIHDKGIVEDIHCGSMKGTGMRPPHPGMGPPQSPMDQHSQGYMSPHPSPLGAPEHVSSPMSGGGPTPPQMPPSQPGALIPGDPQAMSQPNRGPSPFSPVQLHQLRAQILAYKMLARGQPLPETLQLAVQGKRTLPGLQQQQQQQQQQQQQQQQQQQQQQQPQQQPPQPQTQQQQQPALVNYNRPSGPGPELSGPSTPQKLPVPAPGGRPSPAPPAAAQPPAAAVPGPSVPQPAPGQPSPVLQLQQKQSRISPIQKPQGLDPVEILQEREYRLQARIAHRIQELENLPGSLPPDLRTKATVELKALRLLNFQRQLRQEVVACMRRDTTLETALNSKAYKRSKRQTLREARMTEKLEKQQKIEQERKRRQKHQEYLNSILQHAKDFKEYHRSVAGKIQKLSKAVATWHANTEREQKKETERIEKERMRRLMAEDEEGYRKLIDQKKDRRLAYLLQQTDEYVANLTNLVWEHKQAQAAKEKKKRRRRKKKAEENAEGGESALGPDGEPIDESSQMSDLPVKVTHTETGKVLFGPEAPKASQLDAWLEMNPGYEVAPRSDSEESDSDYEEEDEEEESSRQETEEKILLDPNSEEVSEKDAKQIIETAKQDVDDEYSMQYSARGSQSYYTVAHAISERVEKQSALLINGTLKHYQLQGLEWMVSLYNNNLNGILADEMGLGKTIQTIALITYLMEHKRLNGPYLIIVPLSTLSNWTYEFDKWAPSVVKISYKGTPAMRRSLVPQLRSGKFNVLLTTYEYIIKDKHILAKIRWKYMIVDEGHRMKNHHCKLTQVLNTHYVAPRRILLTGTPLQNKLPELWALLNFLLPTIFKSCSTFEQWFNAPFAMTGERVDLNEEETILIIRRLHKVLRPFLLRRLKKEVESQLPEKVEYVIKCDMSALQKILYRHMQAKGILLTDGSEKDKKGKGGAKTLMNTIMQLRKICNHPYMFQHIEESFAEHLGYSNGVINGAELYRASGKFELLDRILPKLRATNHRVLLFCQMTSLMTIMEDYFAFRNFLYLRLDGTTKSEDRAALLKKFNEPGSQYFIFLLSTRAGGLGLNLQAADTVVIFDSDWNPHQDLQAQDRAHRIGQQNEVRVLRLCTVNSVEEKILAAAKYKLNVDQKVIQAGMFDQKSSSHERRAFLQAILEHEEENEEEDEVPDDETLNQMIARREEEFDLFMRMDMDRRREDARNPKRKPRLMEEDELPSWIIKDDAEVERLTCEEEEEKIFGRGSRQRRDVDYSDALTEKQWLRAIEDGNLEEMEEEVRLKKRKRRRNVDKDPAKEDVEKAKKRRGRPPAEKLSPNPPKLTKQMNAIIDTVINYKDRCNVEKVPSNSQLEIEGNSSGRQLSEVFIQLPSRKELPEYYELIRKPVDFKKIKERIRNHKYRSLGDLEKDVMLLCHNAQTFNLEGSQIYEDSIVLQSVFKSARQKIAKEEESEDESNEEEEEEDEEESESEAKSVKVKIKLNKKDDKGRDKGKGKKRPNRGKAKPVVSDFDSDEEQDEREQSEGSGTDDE

Chain of BRG-1 (P51532 whole entry): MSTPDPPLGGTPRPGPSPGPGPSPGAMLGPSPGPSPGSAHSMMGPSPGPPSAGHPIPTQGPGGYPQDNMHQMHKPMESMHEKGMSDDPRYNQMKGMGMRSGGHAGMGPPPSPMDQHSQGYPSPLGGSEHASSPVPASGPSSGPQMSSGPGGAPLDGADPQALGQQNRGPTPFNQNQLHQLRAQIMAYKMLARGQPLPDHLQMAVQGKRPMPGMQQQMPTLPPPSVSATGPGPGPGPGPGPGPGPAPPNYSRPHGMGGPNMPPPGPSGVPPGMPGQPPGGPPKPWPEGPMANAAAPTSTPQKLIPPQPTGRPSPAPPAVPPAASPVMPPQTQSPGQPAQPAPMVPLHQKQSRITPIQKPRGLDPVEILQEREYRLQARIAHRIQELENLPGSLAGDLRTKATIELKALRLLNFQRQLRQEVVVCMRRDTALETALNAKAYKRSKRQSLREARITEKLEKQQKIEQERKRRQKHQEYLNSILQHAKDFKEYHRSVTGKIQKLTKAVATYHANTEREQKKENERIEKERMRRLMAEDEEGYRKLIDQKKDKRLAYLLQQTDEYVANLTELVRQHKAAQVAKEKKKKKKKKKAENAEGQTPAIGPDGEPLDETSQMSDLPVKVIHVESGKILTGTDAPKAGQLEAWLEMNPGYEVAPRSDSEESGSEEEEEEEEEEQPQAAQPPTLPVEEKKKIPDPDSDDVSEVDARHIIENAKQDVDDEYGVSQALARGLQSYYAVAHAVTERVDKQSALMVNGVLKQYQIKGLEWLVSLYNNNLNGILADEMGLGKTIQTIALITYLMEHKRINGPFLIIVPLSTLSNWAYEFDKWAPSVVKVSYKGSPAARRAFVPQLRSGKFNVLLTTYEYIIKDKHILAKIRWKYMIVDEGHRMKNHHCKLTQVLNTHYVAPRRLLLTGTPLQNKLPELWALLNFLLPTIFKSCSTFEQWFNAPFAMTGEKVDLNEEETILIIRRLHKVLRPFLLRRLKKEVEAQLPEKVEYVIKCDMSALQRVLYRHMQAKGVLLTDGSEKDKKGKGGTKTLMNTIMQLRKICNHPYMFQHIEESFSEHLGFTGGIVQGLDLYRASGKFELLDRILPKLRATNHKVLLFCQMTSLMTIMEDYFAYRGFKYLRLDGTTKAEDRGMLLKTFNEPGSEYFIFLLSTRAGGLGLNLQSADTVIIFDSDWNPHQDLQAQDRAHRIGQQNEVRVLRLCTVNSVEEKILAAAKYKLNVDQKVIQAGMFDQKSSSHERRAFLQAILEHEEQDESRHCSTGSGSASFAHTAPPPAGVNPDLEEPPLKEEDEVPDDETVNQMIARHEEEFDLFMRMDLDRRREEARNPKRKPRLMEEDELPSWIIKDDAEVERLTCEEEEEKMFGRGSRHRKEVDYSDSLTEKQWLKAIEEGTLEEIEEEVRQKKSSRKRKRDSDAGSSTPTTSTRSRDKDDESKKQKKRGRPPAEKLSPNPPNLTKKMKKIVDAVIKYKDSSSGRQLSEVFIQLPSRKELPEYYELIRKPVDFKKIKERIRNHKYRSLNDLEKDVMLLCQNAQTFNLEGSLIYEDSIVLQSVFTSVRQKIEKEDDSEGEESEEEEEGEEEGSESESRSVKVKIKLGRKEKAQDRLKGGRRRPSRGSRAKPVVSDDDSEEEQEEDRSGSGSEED

| Compound | IC50 (BRG-1) [nM] | Emax (BRG-1) [%] | BRM Max % Inhibition (BRM) [%] | IC50 (BRM) [µM] |
| --- | --- | --- | --- | --- |
| Cn1ncc2c1CN(c1ccc3cnc(CNC(=O)c4ccc5c(c4)[C@](C)(C#N)COC5)cc3n1)CC2 [Compound 457] | 500 to 1000 | 61 | 95 | 0.1 to 0.5 |
| Cn1cc2c(n1)CN(c1ccc3cnc(CNC(=O)c4ccc5c(c4)[C@](C)(C#N)COC5)cc3n1)CC2 [Compound 458] | 500 to 1000 | 74 | 95 | 0.1 to 0.5 |
| C[C@@]1(C#N)COCc2ccc(C(=O)NCc3cc4nc(-c5ccn6nccc6c5)ccc4cn3)cc21 [Compound 459] | 100 to 500 | 86 | 97 | < 0.1 |
| CNC(=O)c1cccc(-c2ccc3cnc(CNC(=O)c4ccc5c(c4)[C@](C)(C#N)COC5)cc3n2)c1F [Compound 460] | 500 to 1000 | 75 | 98 | 0.1 to 0.5 |
| Cn1ncc2c1CN(c1ccc3cnc(CNC(=O)c4ccc5c(c4)[C@](C)(C#N)COC5)cc3n1)C2 [Compound 461] | 500 to 1000 | 65 | 93 | 0.1 to 0.5 |
| COc1c(-c2ccc3cnc(CNC(=O)c4ccc5c(c4)[C@](C)(C#N)COC5)cc3n2)cnn1C [Compound 462] | 500 to 1000 | 71 | 93 | 0.1 to 0.5 |
| C[C@@]1(C#N)COCc2ccc(C(=O)NCc3cc4nc(-c5ccccc5)cnc4cn3)cc21 [Compound 463] | 500 to 1000 | 82 | 98 | < 0.1 |
| CN(C)C(=O)c1cccc(-c2ccc3cnc(CNC(=O)c4ccc5c(c4)[C@](C)(C#N)COC5)cc3n2)n1 [Compound 464] | > 1000 | 48 | 88 | 0.1 to 0.5 |
| CN1CCN(c2cccc(-c3ccc4cnc(CNC(=O)c5ccc6c(c5)[C@](C)(C#N)COC6)cc4n3)n2)CC1 [Compound 465] | 100 to 500 | 89 | 99 | < 0.1 |
| CNC(=O)c1cccc(-c2ccc3cnc(CNC(=O)c4ccc5c(c4)[C@](C)(C#N)COC5)cc3n2)n1 [Compound 466] | 500 to 1000 | 79 | 99 | < 0.1 |
| CNC(=O)c1cc(-c2ccc3cnc(CNC(=O)c4ccc5c(c4)[C@](C)(C#N)COC5)cc3n2)ccc1F [Compound 467] | 100 to 500 | 86 | 99 | < 0.1 |
| COCCNC(=O)c1cccc(-c2ccc3cnc(CNC(=O)c4ccc5c(c4)[C@](C)(C#N)COC5)cc3n2)c1 [Compound 468] | 500 to 1000 | 80 | 100 | < 0.1 |
| C[C@@]1(C#N)COCc2ccc(C(=O)NCc3cc4nc(-c5cccc(C(F)F)n5)ccc4cn3)cc21 [Compound 469] | 100 to 500 | 85 | 98 | < 0.1 |
| C[C@@]1(C#N)COCc2ccc(C(=O)NCc3cc4nc(N5CCCC5=O)ccc4cn3)cc21 [Compound 471] | > 1000 | 63 | 96 | 0.1 to 0.5 |
| CN(C)c1ncc(-c2ccc3cnc(CNC(=O)c4ccc5c(c4)[C@](C)(C#N)COC5)cc3n2)cn1 [Compound 472] | > 1000 | 51 | 86 | 0.1 to 0.5 |
| C[C@@]1(C#N)COCc2ccc(C(=O)NCc3cc4nc(-n5cccn5)ccc4cn3)cc21 [Compound 473] | > 1000 | 72 | 96 | 0.1 to 0.5 |
| CN1CCN(c2cccc(-c3ccc4cnc(CNC(=O)c5ccc6c(c5)[C@](C)(C#N)COC6)cc4n3)c2)CC1 [Compound 474] | > 1000 | 53 | 93 | 0.1 to 0.5 |
| CC(=O)N1CCOc2ccc(-c3ccc4cnc(CNC(=O)c5ccc6c(c5)[C@](C)(C#N)COC6)cc4n3)cc21 [Compound 475] | 100 to 500 | 98 | 99 | < 0.1 |
| CN1C(=O)Cc2ccc(-c3ccc4cnc(CNC(=O)c5ccc6c(c5)[C@](C)(C#N)COC6)cc4n3)cc21 [Compound 476] | 500 to 1000 | 63 | 94 | 0.1 to 0.5 |
| C[C@@]1(C#N)COCc2ccc(C(=O)NCc3cc4nc(-c5cnn(-c6ccncc6)c5)ccc4cn3)cc21 [Compound 477] | > 1000 | 49 | 88 | 0.1 to 0.5 |
| C[C@@]1(C#N)COCc2ccc(C(=O)NCc3cc4nc(-c5ccc(C(F)F)nc5)ccc4cn3)cc21 [Compound 478] | 500 to 1000 | 63 | 95 | 0.1 to 0.5 |
| C[C@@]1(C#N)COCc2ccc(C(=O)NCc3cc4nc(-c5cccc(C6(O)COC6)c5)ccc4cn3)cc21 [Compound 479] | 500 to 1000 | 72 | 96 | 0.1 to 0.5 |

| Compound | IC50 (BRG-1) [nM] | Emax (BRG-1) [%] | BRM Max % Inhibition (BRM) [%] | IC50 (BRM) [µM] |
| --- | --- | --- | --- | --- |
| COc1cc(F)ccc1-c1ccc2cnc(CNC(=O)c3ccc4c(c3)[C@](C)(C#N)COC4)cc2n1 [Compound 481] | 100 to 500 | 95 | 98 | < 0.1 |
| COc1cncc(-c2ccc3cnc(CNC(=O)c4ccc5c(c4)[C@](C)(C#N)COC5)cc3n2)c1 [Compound 482] | 500 to 1000 | 55 | 90 | 0.1 to 0.5 |
| CNC(=O)c1cccc(-c2ccc3cnc(CNC(=O)c4ccc5c(c4)[C@](C)(C#N)COC5)cc3n2)c1 [Compound 483] | 500 to 1000 | 72 | 93 | 0.1 to 0.5 |
| C[C@@]1(C#N)COCc2ccc(C(=O)NCc3cc4nc(-c5cccc(C(=O)N6CCC6)c5)ccc4cn3)cc21 [Compound 484] | 500 to 1000 | 77 | 96 | 0.1 to 0.5 |
| CN1Cc2ccc(-c3ccc4cnc(CNC(=O)c5ccc6c(c5)[C@](C)(C#N)COC6)cc4n3)cc2C1=O [Compound 485] | 500 to 1000 | 82 | 93 | 0.1 to 0.5 |
| C[C@@]1(C#N)COCc2ccc(C(=O)NCc3cc4nc(N5CCn6nccc6C5)ccc4cn3)cc21 [Compound 486] | > 1000 | 70 | 95 | 0.1 to 0.5 |
| C[C@@]1(C#N)COCc2ncc(C(=O)NCc3cc4nc(-c5cc(F)cc(N6CCC6)c5)ccc4cn3)cc21 [Compound 487] | 100 to 500 | 95 | 100 | < 0.1 |
| COc1ncccc1-c1ccc2cnc(CNC(=O)c3ccc4c(c3)[C@](C)(C#N)COC4)cc2n1 [Compound 488] | 100 to 500 | 91 | 101 | < 0.1 |
| COc1ccncc1-c1ccc2cnc(CNC(=O)c3ccc4c(c3)[C@](C)(C#N)COC4)cc2n1 [Compound 489] | 500 to 1000 | 76 | 97 | 0.1 to 0.5 |
| CN(C)C(=O)c1cccc(-c2ccc3cnc(CNC(=O)c4ccc5c(c4)[C@](C)(C#N)COC5)cc3n2)c1 [Compound 490] | > 1000 | 40 | 93 | 0.1 to 0.5 |
| COc1c(-c2ccc3cnc(CNC(=O)c4ccc5c(c4)[C@](C)(C#N)COC5)cc3n2)ccc2cnn(C)c12 [Compound 491] | 500 to 1000 | 76 | 98 | 0.1 to 0.5 |
| COc1cccc(-c2ccc3cnc(CNC(=O)c4ccc5c(c4)[C@](C)(C#N)COC5)cc3n2)n1 [Compound 492] | 100 to 500 | 91 | 99 | < 0.1 |
| C[C@@]1(C#N)COCc2ccc(C(=O)NCc3cc4nc(-c5cnn6ccccc56)ccc4cn3)cc21 [Compound 493] | 500 to 1000 | 68 | 96 | 0.1 to 0.5 |
| C[C@@]1(C#N)COCc2ccc(C(=O)NCc3cc4cc(-c5ccccc5)ccc4nn3)cc21 [Compound 494] | 100 to 500 | 90 | 99 | < 0.1 |
| CN1Cc2cc(-c3ccc4cnc(CNC(=O)c5ccc6c(c5)[C@](C)(C#N)COC6)cc4n3)ccc2C1=O [Compound 495] | 100 to 500 | 88 | 99 | < 0.1 |
| C[C@@]1(C#N)COCc2ccc(C(=O)NCc3cc4nc(-c5cccc(N6CCC6)n5)ccc4cn3)cc21 [Compound 496] | < 100 | 92 | 100 | < 0.1 |
| C[C@@]1(C#N)COCc2ccc(C(=O)NCc3cc4nc(-c5cncc(N6CCC6)n5)ccc4cn3)cc21 [Compound 497] | < 100 | 97 | 100 | < 0.1 |
| CN1C(=O)Cc2cc(-c3ccc4cnc(CNC(=O)c5ccc6c(c5)[C@](C)(C#N)COC6)cc4n3)ccc21 [Compound 498] | 100 to 500 | 83 | 98 | 0.1 to 0.5 |
| C[C@@]1(C#N)COCc2ccc(C(=O)NCc3cc4nc(-c5cnn(-c6cccnc6)c5)ccc4cn3)cc21 [Compound 499] | > 1000 | 29 | 85 | 0.1 to 0.5 |
| C[C@@]1(C#N)COCc2ncc(C(=O)NCc3cc4nc(-c5cccc(C(F)F)c5)ccc4cn3)cc21 [Compound 500] | 500 to 1000 | 83 | 95 | < 0.1 |
| Cc1cc(-c2ccc3cnc(CNC(=O)c4ccc5c(c4)[C@](C)(C#N)COC5)cc3n2)n(C)n1 [Compound 501] | > 1000 | 47 | 85 | 0.1 to 0.5 |
